Reference: ChEMBL document CHEMBL1148120, “New cytotoxic 6,7-cis and 6,7-trans configured guaianolides from Warionia saharae” (J Nat Prod, 2002)
Converted amounts (≈) assume the structure as drawn.

System: KB
Test: Cytotoxicity against human KB cells
Type: functional, cell-based

C=C1C(=O)O[C@H]2[C@H]1CC=C(C)[C@]1(O)C[C@H]3O[C@@]3(C)[C@H]21
IC50: 1.7 µg/mL (≈ 6.48 µM)

C=C1C(=O)O[C@H]2[C@H]1CCC(=C)[C@]1(O)C[C@H]3O[C@@]3(C)[C@H]21
IC50: 2 µg/mL (≈ 7.62 µM)

C=C1C(=O)O[C@@H]2[C@H]1CCC(C)=C1[C@H]3O[C@](C)([C@H]3OC(=O)C(C)CC)[C@@H]12 (stereo partly drawn) [3BETA-O-(2-METHYLBUTYRYL)MOROCCOLIDE A]
IC50: 1 µg/mL (≈ 2.89 µM)

C=C1C(=O)O[C@@H]2[C@H]1CCC(C)=C1[C@H]3O[C@](C)([C@H]3O)[C@@H]12 [MOROCCOLIDE A]
IC50: 4.5 µg/mL (≈ 17.2 µM)

C=C1C(=O)O[C@H]2[C@@H]3[C@@](O)(C(C)=CC[C@@H]12)[C@@H]1C[C@@]3(C)O1 [SAHARANOLIDE A]
IC50: 3.3 µg/mL (≈ 12.6 µM)

C=C1C(=O)O[C@H]2[C@@H]3[C@@](O)(C(=C)CC[C@@H]12)[C@@H]1C[C@@]3(C)O1 [SAHARANOLIDE B]
IC50: 5.5 µg/mL (≈ 21 µM)
